Assays:
[1] = tested on: Echinochloa oryzoides (Ard.) Fritsch.; assay: Preemergence weed control under flooded paddy conditions, ECHORC (Watergrass (Calif.)); type: in vivo; conditions: preemergence, flooded paddy, rated three to four weeks after treatment
[2] = tested on: Cyperus iria; assay: Preemergence weed control under flooded paddy conditions, CYPIR (Rice Flatsedge); type: in vivo; conditions: preemergence, flooded paddy, rated three to four weeks after treatment
[3] = tested on: Cyperus serotinus, Rottb.; assay: Preemergence weed control under flooded paddy conditions, CYPSE (Flatsedge); type: in vivo; conditions: preemergence, rated three to four weeks after treatment
[4] = tested on: Monochoria vaginalis, Presl.; assay: Preemergence weed control under flooded paddy conditions, MOOVA (Monochoria); type: in vivo; conditions: preemergence, flooded paddy, rated three to four weeks after treatment
[5] = tested on: Sagittaria pygmaea, L.; assay: Preemergence weed control under flooded paddy conditions, SAGPY (Arrowhead (Pygmaea)); type: in vivo; conditions: preemergence, flooded paddy, rated three to four weeks after treatment
[6] = tested on: Oryza sativa, (L.) Tebonnet; assay: Rice tolerance to post-transplant applications under flooded paddy conditions (Example 187), ORYSAT (Rice, Tebonnet); conditions: rated three to four weeks after treatment

SMILES | ECHORC herbicidal rating ([1]; 0.0320 kg/ha) | ECHORC herbicidal rating ([1]; 0.0620 kg/ha) | ECHORC herbicidal rating ([1]; 0.1250 kg/ha) | ECHORC herbicidal rating ([1]; 0.2500 kg/ha) | CYPIR herbicidal rating ([2]; 0.0320 kg/ha) | CYPIR herbicidal rating ([2]; 0.0620 kg/ha) | CYPIR herbicidal rating ([2]; 0.1250 kg/ha) | CYPIR herbicidal rating ([2]; 0.2500 kg/ha) | CYPSE herbicidal rating ([3]; 0.0320 kg/ha) | CYPSE herbicidal rating ([3]; 0.0620 kg/ha) | MOOVA herbicidal rating ([4]; 0.0320 kg/ha) | MOOVA herbicidal rating ([4]; 0.0620 kg/ha) | MOOVA herbicidal rating ([4]; 0.1250 kg/ha) | MOOVA herbicidal rating ([4]; 0.2500 kg/ha) | SAGPY herbicidal rating ([5]; 0.0320 kg/ha) | SAGPY herbicidal rating ([5]; 0.0620 kg/ha) | ORYSAT herbicidal rating (rice tolerance) ([6]; 0.0320 kg/ha) | ORYSAT herbicidal rating (rice tolerance) ([6]; 0.0620 kg/ha) | ORYSAT herbicidal rating (rice tolerance) ([6]; 0.1250 kg/ha) | ORYSAT herbicidal rating (rice tolerance) ([6]; 0.2500 kg/ha) | also measured
COCOCc1nsc2ccc(-n3c(=O)cc(C(F)(F)F)n(C)c3=O)cc12 [Example 478, 2,4(1H,3H)-Pyrimidinedione, 3-{3-[(methoxymethoxy)methyl]-1,2-benzisothiazol-5-yl}-1-methyl-6-(trifluoromethyl)-] | 4.0 | 6.0 | 7.0 | 9.0 | 4.0 | 9.0 | 9.0 | 9.0 | 6.0 | 7.0 | 7.0 | 9.0 | 9.0 | 9.0 | 6.0 | 6.0 | 7.0 | 9.0 | 9.0 | 9.0 | CYPSE herbicidal rating ([3]; 0.1250 kg/ha): 9.0; CYPSE herbicidal rating ([3]; 0.2500 kg/ha): 9.0; SAGPY herbicidal rating ([5]; 0.1250 kg/ha): 9.0; SAGPY herbicidal rating ([5]; 0.2500 kg/ha): 9.0
COC(=O)COc1cc(C)ccc1-c1nsc2cc(F)c(-n3c(=O)cc(C(F)(F)F)n(C)c3=O)cc12 [Example 479, Acetic acid, {{6-{5-[3,6-dihydro-3-methyl-2,6-dioxo-4-(trifluoromethyl)-1(2H)-pyrimidinyl]-6-fluoro-1,2-benzisothiazol-3-yl}-m-tolyl}oxy}-, methyl ester] | 7.0 | 7.0 | 9.0 | 9.0 | 0.0 | 0.0 | 5.0 | 9.0 | 0.0 | 7.0 | 0.0 | 7.0 | 9.0 | 9.0 | 3.0 | 5.0 | 5.0 | 5.0 | 9.0 | 9.0 | CYPSE herbicidal rating ([3]; 0.1250 kg/ha): 9.0; CYPSE herbicidal rating ([3]; 0.2500 kg/ha): 9.0; SAGPY herbicidal rating ([5]; 0.1250 kg/ha): 6.0; SAGPY herbicidal rating ([5]; 0.2500 kg/ha): 8.0
Cc1cccc(CS(=O)(=O)NC(=O)c2nsc3ccc(-n4c(=O)cc(C(F)(F)F)n(C)c4=O)cc23)c1 [Example 483, 1,2-Benzisothiazole-3-carboxamide, 5-[3,6-dihydro-3-methyl-2,6-dioxo-4-(trifluoromethyl)-1(2H)-pyrimidinyl]-N-[(m-methylbenzyl)sulfonyl]-] | 6.0 | 7.0 | 7.0 | 7.0 | 0.0 | 2.0 | 5.0 | 6.0 |  | 4.0 | 7.0 | 9.0 | 9.0 | 9.0 | 0.0 | 0.0 | 3.0 | 3.0 | 5.0 | 6.0 | CYPSE herbicidal rating ([3]; 0.2500 kg/ha): 6.0; SAGPY herbicidal rating ([5]; 0.1250 kg/ha): 3.0; SAGPY herbicidal rating ([5]; 0.2500 kg/ha): 5.0
CSCOCc1nsc2ccc(-n3c(=O)cc(C(F)(F)F)n(C)c3=O)cc12 [Example 484, 2,4(1H,3H)-Pyrimidinedione, 1-methyl-3-{3-{[(methylthio)methoxy]methyl}-1,2-benzisothiazol-5-yl}-6-(trifluoromethyl)-] | 5.0 | 4.0 | 7.0 | 9.0 | 4.0 | 4.0 | 6.0 | 9.0 | 0.0 |  | 7.0 | 9.0 | 9.0 | 9.0 | 5.0 |  | 5.0 | 5.0 | 6.0 | 6.0 | 
Cn1c(C(F)(F)F)cc(=O)n(-c2ccc3snc(C(=O)NS(=O)(=O)CCc4ccccc4)c3c2)c1=O [Example 485, 1,2-Benzisothiazole-3-carboxamide, 5-[3,6-dihydro-3-methyl-2,6-dioxo-4-(trifluoromethyl)-1(2H)-pyrimidinyl]-N-(phenethylsulfonyl)-] | 4.0 | 6.0 | 6.0 | 9.0 | 2.0 | 4.0 | 5.0 | 6.0 | 0.0 | 0.0 | 4.0 | 6.0 | 7.0 | 8.0 | 0.0 | 0.0 | 0.0 | 2.0 | 4.0 | 5.0 | SAGPY herbicidal rating ([5]; 0.1250 kg/ha): 0.0; SAGPY herbicidal rating ([5]; 0.2500 kg/ha): 3.0
Cn1c(C(F)(F)F)cc(=O)n(-c2ccc3snc(C(=O)NS(=O)(=O)Cc4cccc(Cl)c4)c3c2)c1=O [Example 486, 1,2-Benzisothiazole-3-carboxamide, N-[(m-chlorobenzyl)sulfonyl]-5-[3,6-dihydro-3-methyl-2,6-dioxo-4-(trifluoromethyl)-1(2H)-pyrimidinyl]-] | 4.0 | 6.0 | 7.0 | 9.0 | 4.0 | 5.0 | 6.0 | 6.0 | 0.0 | 0.0 | 5.0 | 6.0 | 7.0 | 9.0 | 0.0 | 0.0 | 0.0 | 3.0 | 5.0 | 6.0 | CYPSE herbicidal rating ([3]; 0.2500 kg/ha): 3.0; SAGPY herbicidal rating ([5]; 0.1250 kg/ha): 3.0; SAGPY herbicidal rating ([5]; 0.2500 kg/ha): 6.0
